In patent publication US11406613B2, “Treatment of osteoarthritis” (ST GEORGE'S HOSPITAL MEDICAL SCHOOL, priority 2016, dated 2022):
Read-outs that look alike come from different tables or passages of the source.

Experiments:
[1] = system: hand OA participants; conditions: for AUSCAN pain score 90 days (95% CI) / AUSCAN pain score Baseline (95% CI): per-protocol population; for AUSCAN pain score 90 days (95% CI) / AUSCAN pain score Baseline (95% CI) / AUSCAN function 90 days (95% CI) / AUSCAN stiffness 90 days (95% CI) / AUSCAN function Baseline (95% CI) / AUSCAN stiffness Baseline (95% CI): imputed data; for AUSCAN pain score 90 days (95% CI): pregabalin up to 300 mg, duloxetine up to 60 mg daily; for AUSCAN pain score Baseline (95% CI): 5 questions 0-100 mm, total of 500; for AUSCAN function 90 days (95% CI) / AUSCAN stiffness 90 days (95% CI) / AUSCAN function Baseline (95% CI) / AUSCAN stiffness Baseline (95% CI) / AUSCAN function Mean diff (95% CI) / AUSCAN stiffness Mean diff (95% CI) / AUSCAN pain score Mean diff (95% CI): per-protocol; for AUSCAN stiffness Baseline (95% CI): one question 0-100 mm; for AUSCAN function Mean diff (95% CI) / AUSCAN stiffness Mean diff (95% CI): baseline to 90 days; for AUSCAN pain score Mean diff (95% CI): change between baseline and 90 days (13 weeks), primary endpoint
Description: Inclusion criteria: Participants were eligible for screening if they were aged 40-75 years, had hand OA diagnosed by ACR criteria (Altman et al., Arthritis and Rheumatism 1990; 33(11): 1601-10) confirmed by a rheumatologist and experiencing pain of at least 5 or above on a numerical rating scale (NRS) of 0-10. […] All participants underwent baseline hand radiography to confirm radiographic evidence of OA. The radiographic findings were used to confirm radiographic evidence of OA from ACR criteria of at least 3 joints affected, with a Kellgren-Lawrence grade (Kellgren et al., Ann Rheum Dis 1957; 16(4): 494-502) of 2 or above in at least 3 affected joints. Radiographic scoring was performed after a training session independently by 2 researchers.
Participants were issued with a diary card with their medication to be completed for VAS pain rating on a daily basis. […] The protocol recommended that participants should record use of rescue medication (paracetamol up to 4 g daily) in their diary card.
The primary end point was the Australian and Canadian Hand Osteoarthritis Index (AUSCAN) rating scale 3.1 with sub-scales for pain, which is a validated measure of hand pain, stiffness and function in clinical trials of hand OA (Bellamy et al., Arthritis Care Res (Hoboken) 2015; 67(7): 972-80). Based on IMMPACT guidelines for pain trials (Dworkin et al., Pain 2005; 113: 9-19), primary end-point data for the AUSCAN pain sub-scale was collected. The primary endpoint was change in AUSCAN pain between baseline and 13 weeks. Patient-reported symptoms were recorded in three domains and participants asked to record their scores based on symptoms ‘in the last 48 hours’. Pain reporting consists of 5 questions, rated at 0-100 mm each, for pain in the hands at rest, gripping objects, turning and squeezing objects, scoring out of a total of 500.
For secondary outcome data, the AUSCAN stiffness and function scales were recorded; there was one question for stiffness symptoms (0-100 mm) and 3 questions testing function (0-100 mm each). Additional secondary outcomes included the Numerical Rating Scale (NRS) pain rating 0-10, the Hospital Anxiety and Depression Scale (HADS) (Bjelland et al., Journal of Psychosomatic Research. 2002; 52(2): 69-77) and pain sensitisation measures in the three treatment groups at baseline and at week 13. Operational definitions for all end points, including time points for comparisons, were specified prospectively in the trial protocol.
(§1) The AUSCAN pain, stiffness and function outcomes are presented as means and 95% confidence intervals. Analysed between group were comparisons by the Mann Whitney U test. Baseline characteristics in each group are shown by mean values and standard deviation. […] IBM SPSS Statistics 21.0 was used for all analyses and graphs were plotted using Graphpad Prism version 6.

[2] = system: hand OA participants; conditions: per-protocol; for Numerical Rating Scale (NRS) 90 days (95% CI) / Numerical Rating Scale (NRS) Baseline (95% CI): imputed data; for Numerical Rating Scale (NRS) Baseline (95% CI): scale 0-10; for Numerical Rating Scale (NRS) Mean diff (95% CI): baseline to 90 days
Description: (§2) Participants were issued with a diary card with their medication to be completed for VAS pain rating on a daily basis. […] The protocol recommended that participants should record use of rescue medication (paracetamol up to 4 g daily) in their diary card. […] All other care was at the discretion of the treating physicians.
Additional secondary outcomes included the Numerical Rating Scale (NRS) pain rating 0-10, the Hospital Anxiety and Depression Scale (HADS) (Bjelland et al., Journal of Psychosomatic Research. 2002; 52(2): 69-77) and pain sensitisation measures in the three treatment groups at baseline and at week 13. Operational definitions for all end points, including time points for comparisons, were specified prospectively in the trial protocol.
as §1

[3] = system: hand OA participants; conditions: for Consumption of rescue medication (total): paracetamol up to 4 g daily as rescue medication, per-protocol population; for Average use of paracetamol as rescue medication compared with placebo: result in words
Description: as §2

[4] = system: hand OA participants; conditions: per-protocol; for Hospital Anxiety and Depression Scale Depression Mean diff (95% CI): baseline to 90 days; for Hospital Anxiety and Depression Scale Anxiety Baseline (95% CI): listed as head as printed; for Hospital Anxiety and Depression Scale Anxiety: listed as head prints only 'Anxiety'
Description: Additional secondary outcomes included the Numerical Rating Scale (NRS) pain rating 0-10, the Hospital Anxiety and Depression Scale (HADS) (Bjelland et al., Journal of Psychosomatic Research. 2002; 52(2): 69-77) and pain sensitisation measures in the three treatment groups at baseline and at week 13.

[5] = system: hand OA participants; conditions: for Side effects: Total (adverse events recorded): all systems, whole treatment group; for Participants discontinuing treatment / withdrawing because of (serious) adverse events: number of participants
Protocol: The safety and tolerability of these agents used in this context was secondarily explored, and pain sensitisation measures were assessed.
as §2

[6] = system: knee OA; conditions: Chappell et al., Pain 2009; cited from earlier work
[7] = system: primary hand OA; conditions: Basoki et al., Ann Rheum Dis 2015; cited from earlier work
[8] = number of adverse events recorded in treatment group

Row | SMILES | AUSCAN pain score 90 days (95% CI) [1] | AUSCAN pain score Baseline (95% CI) [1] | AUSCAN function 90 days (95% CI) [1] | AUSCAN stiffness 90 days (95% CI) [1] | AUSCAN function Baseline (95% CI) [1] | AUSCAN stiffness Baseline (95% CI) [1] | AUSCAN function Mean diff (95% CI) [1] | AUSCAN stiffness Mean diff (95% CI) [1] | AUSCAN pain score Mean diff (95% CI) [1] | Numerical Rating Scale (NRS) 90 days (95% CI) [2] | Numerical Rating Scale (NRS) Baseline (95% CI) [2] | Numerical Rating Scale (NRS) Mean diff (95% CI) [2] | Consumption of rescue medication (total) [3] [days] | Average use of paracetamol as rescue medication compared with placebo [3] | Hospital Anxiety and Depression Scale Depression 90 days (95% CI) [4] | Hospital Anxiety and Depression Scale Depression Baseline (95% CI) [4] | Hospital Anxiety and Depression Scale Depression Mean diff (95% CI) [4] | Hospital Anxiety and Depression Scale Anxiety Baseline (95% CI) [4] | Hospital Anxiety and Depression Scale Anxiety [4] | Side effects: Total (adverse events recorded) [5] | further results
1 | CC(C)C[C@H](CN)CC(=O)O [Pregabalin, (3S)-3-(aminomethyl)-5-methylhexanoic acid] | 176.5 (123.9 to 229.1) | 308.5 (262.6 to 354.5) | 362.2 (281.7 to 442.7) | 36.5 (23.0 to 49.9) | 608.5 (541.3 to 675.7) | 59.9 (51.8 to 67.9) | −246.3 (−341.7 to −151.0) | −23.4 (−35.7 to −11.1) | −132.0 (−181.1 to −82.9) | 3.4 (2.4 to 4.4) | 6.1 (5.4 to 6.7) | −2.7 (−3.5 to −1.9) | 9 | much lower | 4.1 (2.6 to 5.6) | 5.1 (3.3 to 6.9) | −1.1 (−2.1 to −0.02) | 5.2 (2.9 to 7.5) | 6.1 (3.8 to 8.3) | 55 | AUSCAN pain score Mean diff (95% CI) ([1]; listed as pregabalin): −132.0; Dose giving maximum analgesic and functional improvement effect (AUSCAN trajectory, FIG. 3) ([1]; result in words): maximum analgesic and functional improvement effect at the higher dose of 300 mg; Side effects: Cardiovascular [5, 8]: 3; Side effects: Digestive [5, 8]: 7; Side effects: Genitourinary [5, 8]: 1; Side effects: Mental [5, 8]: 9; Side effects: Nervous system, Dizziness [5, 8]: 7; Side effects: Nervous system, Dry mouth [5, 8]: 6; Side effects: Nervous system, Headaches [5, 8]: 3; Side effects: Nervous system, Loss of balance [5, 8]: 7; Side effects: Nervous system, Sleepiness [5, 8]: 5; Side effects: Ophthalmological [5, 8]: 4; Side effects: Respiratory [5, 8]: 2; Participants discontinuing treatment / withdrawing because of (serious) adverse events [5]: 4
2 | CNCC[C@H](Oc1cccc2ccccc12)c1cccs1 [Duloxetine] | 248.1 (162.3 to 333.9) | 310.6 (254.3 to 367.0) | 496.4 (342.4 to 650.5) | 48.3 (29.9 to 66.6) | 598.3 (481.2 to 715.3) | 61.8 (45.8 to 77.8) | −101.9 (−248.4 to −44.8) | −13.5 (26.5 to −0.6) | −62.5 (−141.6 to 16.6) | 4.3 (2.6 to 5.9) | 6.6 (5.7 to 7.4) | −2.3 (−3.8 to −0.9) | 5 | much lower | 3.8 (1.9 to 5.7) | 4.1 (2.3 to 5.9) | −0.3 (−1.8 to 1.2) | 4.3 (2.2 to 6.3) | 5.6 (3.6 to 7.5) | 57 | Significant improvement in AUSCAN pain, stiffness or function compared with placebo ([1]; baseline to 13 weeks, result in words): Significant improvement in AUSCAN pain, stiffness or function were not observed; AUSCAN pain score Mean diff (95% CI) ([1]; listed as duloxetine): −62.5; Side effects: Cardiovascular [5, 8]: 2; Side effects: Digestive [5, 8]: 18; Side effects: ENT [5, 8]: 2; Side effects: Mental [5, 8]: 9; Side effects: Nervous system, Dizziness [5, 8]: 3; Side effects: Nervous system, Dry mouth [5, 8]: 6; Side effects: Nervous system, Headaches [5, 8]: 8; Side effects: Nervous system, Sleepiness [5, 8]: 3; Side effects: Ophthalmological [5, 8]: 2; Side effects: Respiratory [5, 8]: 3; Side effects: Skin [5, 8]: 1; Participants discontinuing treatment / withdrawing because of (serious) adverse events [5]: 2; Efficacy for pain outcomes in knee OA [6]: shown efficacy for pain outcomes in knee OA
3 | CCN(CCO)CCCC(C)Nc1ccnc2cc(Cl)ccc12 (stereo not shown) [hydroxychloroquine] | – | – | – | – | – | – | – | – | – | – | – | – | – | – | – | – | – | – | – | – | Pain reduction compared to placebo in primary hand OA [7]: did not reduce pain compared to placebo
